Among the data in PubChem BioAssay (NCI) are TGI values, retold here.

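48-hour exposure; five concentrations; linearly interpolated endpoints. TGI: concentration producing complete growth inhibition.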

Some test systems named below: HT29 colon; MALME-3M melanoma; UACC-62 melanoma; MOLT-4 leukemia; RXF 393 renal; SK-MEL-28 melanoma; SNB-19 CNS; SK-MEL-2 melanoma; MDA-MB-435; HCT-116 colon.
Assay in all cases: NCI tumour cell line growth inhibition, 48 h

`O=C(NCCCCCCCCCCCCNC(=O)Nc1cccc2ccccc12)Nc1cccc2ccccc12`: the TGI in the experiment on HT29 colon was 40.8 µM; in the experiment on MALME-3M melanoma, 34.4 µM; with UACC-62 melanoma, 26.7 µM; with MOLT-4 leukemia, 42.2 µM; in the experiment with RXF 393 renal, 30.6 µM; in the experiment on SK-MEL-28 melanoma, 36.3 µM. For the same molecule, the TGI with SNB-19 CNS stood at 30.1 µM; in the experiment on SK-MEL-2 melanoma it was 35.7 µM; in the experiment with MDA-MB-435 it was 33.5 µM; with HCT-116 colon, 34.3 µM.

Regarding `CSCSSC`, the TGI in the experiment with HT29 colon was over 100 µM; in the experiment with MALME-3M melanoma it was over 100 µM; in the experiment on UACC-62 melanoma it was over 100 µM; in the experiment on MOLT-4 leukemia, 90.3 µM; in the experiment on RXF 393 renal, over 100 µM; in the experiment on SK-MEL-28 melanoma, over 100 µM. For the same molecule, the TGI in the experiment on SNB-19 CNS, with SK-MEL-2 melanoma, with MDA-MB-435 and in the experiment with HCT-116 colon was over 100 µM in each case.

For the molecule `COc1cccc(CCN2CCN(CCCc3ccccc3)CC2)c1`, the TGI in the experiment with HT29 colon, in the experiment with MALME-3M melanoma, in the experiment with UACC-62 melanoma, with MOLT-4 leukemia, with RXF 393 renal and with SK-MEL-28 melanoma was over 100 µM in each case. Further, the TGI with SNB-19 CNS, in the experiment with SK-MEL-2 melanoma, in the experiment with MDA-MB-435 and in the experiment on HCT-116 colon was over 100 µM each time.

As to `CCOc1ccc(N/C(=C(/C(Cl)=C(/Cl)N(CC)CC)[N+](=O)[O-])n2nnc3ccccc32)cc1`, the TGI in the experiment on HT29 colon is 63.8 µM; in the experiment on MALME-3M melanoma, 39 µM; in the experiment on UACC-62 melanoma, 28.8 µM; with MOLT-4 leukemia it was over 100 µM; in the experiment on RXF 393 renal it was 29.2 µM; in the experiment with SK-MEL-28 melanoma it was 41.4 µM. Further, the TGI in the experiment with SNB-19 CNS was over 100 µM; in the experiment on SK-MEL-2 melanoma it was 68.8 µM; in the experiment on MDA-MB-435 it was 33.9 µM; with HCT-116 colon, 30.4 µM.

With `Cc1ccc(/C(O)=C/c2nc3ccccc3sc2=O)c(C)c1`, the TGI was over 100 µM with HT29 colon; over 100 µM with MALME-3M melanoma; over 100 µM in the experiment with UACC-62 melanoma; over 100 µM in the experiment with MOLT-4 leukemia; 18.2 µM in the experiment on RXF 393 renal; over 100 µM in the experiment on SK-MEL-28 melanoma. Moreover, the TGI with SNB-19 CNS, in the experiment on SK-MEL-2 melanoma, in the experiment on MDA-MB-435 and in the experiment on HCT-116 colon was over 100 µM in each case.

For the molecule `CC(NC(=O)C(NC(=O)CNC(=O)OC(C)(C)C)C(C)C)C(=O)Oc1c(Cl)c(Cl)c(Cl)c(Cl)c1Cl` (stereo not given), the TGI in the experiment on HT29 colon is 68.5 µM; with MALME-3M melanoma, 49.4 µM; in the experiment with UACC-62 melanoma, 34.8 µM; in the experiment on MOLT-4 leukemia, over 100 µM; in the experiment with RXF 393 renal, 44.6 µM; in the experiment on SK-MEL-28 melanoma, 71.8 µM. Further, the TGI is 96 µM in the experiment on SNB-19 CNS, 30.3 µM in the experiment with SK-MEL-2 melanoma, 61.3 µM in the experiment on MDA-MB-435 and 31.2 µM with HCT-116 colon.

As for `O=C1NC(=O)C(C(CC(=O)c2ccc([N+](=O)[O-])cc2)c2ccccc2)C(=O)N1` (stereo not given), the TGI with HT29 colon is over 100 µM; in the experiment on MALME-3M melanoma, 42.9 µM; in the experiment with UACC-62 melanoma, over 100 µM; in the experiment on MOLT-4 leukemia, over 100 µM; with RXF 393 renal, 55.8 µM; in the experiment on SK-MEL-28 melanoma, over 100 µM. For the same molecule, the TGI in the experiment on SNB-19 CNS was over 100 µM; with SK-MEL-2 melanoma it was over 100 µM; with MDA-MB-435, over 100 µM; in the experiment on HCT-116 colon it was 28 µM.

Consider `Cc1ccc([S@](=O)c2occc2C=O)cc1`, for which the TGI in the experiment on HT29 colon came to 27.2 µM; in the experiment on MALME-3M melanoma it was 8.45 µM; in the experiment on UACC-62 melanoma, 29.3 µM; in the experiment with MOLT-4 leukemia, 4.16 µM; with RXF 393 renal, 26.3 µM; in the experiment on SK-MEL-28 melanoma it was 9.02 µM. In addition, the TGI in the experiment on SNB-19 CNS came to 18 µM; in the experiment with SK-MEL-2 melanoma, 29.2 µM; in the experiment on MDA-MB-435, 20.8 µM; in the experiment on HCT-116 colon it was 9.64 µM.

Regarding `CCNC(=S)N=Nc1c(O)[nH]c2ccc([N+](=O)[O-])cc12`, the TGI is over 100 µM in the experiment on HT29 colon; over 100 µM with MALME-3M melanoma; over 100 µM with UACC-62 melanoma; over 100 µM with MOLT-4 leukemia; 80.4 µM with RXF 393 renal; over 100 µM with SK-MEL-28 melanoma. In addition, the TGI in the experiment on SNB-19 CNS, in the experiment with SK-MEL-2 melanoma, in the experiment with MDA-MB-435 and in the experiment on HCT-116 colon was over 100 µM throughout.

For the molecule `NC(=O)NNc1nc(-c2ccccc2)cs1`, the TGI in the experiment with HT29 colon, in the experiment on MALME-3M melanoma, in the experiment on UACC-62 melanoma, in the experiment on MOLT-4 leukemia, in the experiment with RXF 393 renal and in the experiment on SK-MEL-28 melanoma was over 100 µM throughout. The TGI with SNB-19 CNS, with SK-MEL-2 melanoma, in the experiment on MDA-MB-435 and with HCT-116 colon was over 100 µM throughout.

As to `O=[N+]([O-])c1ccc2sc(C=Nc3cnccn3)cc2c1`, the TGI in the experiment on HT29 colon is over 100 µM; with MALME-3M melanoma, over 100 µM; in the experiment with UACC-62 melanoma it was 53.1 µM; in the experiment with MOLT-4 leukemia, 34.3 µM; in the experiment with RXF 393 renal it was 33.5 µM; in the experiment with SK-MEL-28 melanoma, over 100 µM. In addition, the TGI in the experiment with SNB-19 CNS is over 100 µM; with SK-MEL-2 melanoma, 75.2 µM; in the experiment on MDA-MB-435 it was over 100 µM; in the experiment on HCT-116 colon, over 100 µM.

In the case of `C=C[C@@H](C)[C@H](NS(=O)(=O)c1ccc(C)cc1)C(=O)OCC`, the TGI in the experiment with HT29 colon is 59.9 µM; with MALME-3M melanoma, over 100 µM; in the experiment with UACC-62 melanoma, over 100 µM; in the experiment with MOLT-4 leukemia, over 100 µM; in the experiment on RXF 393 renal it was over 100 µM; in the experiment with SK-MEL-28 melanoma, over 100 µM. Moreover, the TGI is over 100 µM in the experiment with SNB-19 CNS, over 100 µM in the experiment on SK-MEL-2 melanoma, 47.2 µM in the experiment with MDA-MB-435 and over 100 µM in the experiment on HCT-116 colon.
